According to PubChem BioAssay (NCI):
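Briefly, cells in 96-well plates were exposed to five compound concentrations for 48 h, and endpoints were estimated by linear interpolation. Here, GI50 denotes the concentration required for 50% inhibition of growth. The concentration for full growth arrest is given as TGI.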

Columns and labels:
Test in all cases: NCI tumour cell line growth inhibition, 48 h; in the data active = GI50 below about 0.43 µM; inactive = the rest
[1] = system: OVCAR-3 ovarian
[2] = system: U251 CNS
[3] = system: SNB-19 CNS
[4] = system: SK-MEL-5 melanoma
[5] = system: EKVX NSCLC
[6] = system: SF-295 CNS
[7] = system: CAKI-1 renal
[8] = system: HL-60(TB) leukemia
[9] = system: HCT-15 colon
[10] = system: PC-3 prostate
[11] = system: UACC-257 melanoma
[12] = system: LOX IMVI melanoma
[13] = system: HOP-92 NSCLC
[14] = system: NCI-H522 lung
[15] = system: NCI-H23 lung
[16] = system: MDA-MB-435
[17] = system: 786-0 renal
[18] = system: MOLT-4 leukemia
[19] = system: UACC-62 melanoma
[20] = system: T-47D breast
[21] = system: MALME-3M melanoma
[22] = system: HCC-2998 colon
[23] = system: A549 NSCLC
[24] = system: MCF7 breast
[25] = system: RXF 393 renal
[26] = system: MDA-MB-231 breast
[27] = system: SK-MEL-28 melanoma
[28] = system: SK-OV-3 ovarian
[29] = system: OVCAR-4 ovarian
[30] = system: BT-549 breast
[31] = system: OVCAR-8 ovarian
[32] = system: OVCAR-5 ovarian
[33] = system: SF-268 CNS
[34] = system: SK-MEL-2 melanoma
[35] = system: SF-539 CNS
[36] = system: NCI-H460 lung
[37] = system: M14 melanoma
[38] = system: K-562 leukemia
[39] = system: UO-31 renal
[40] = system: ACHN renal
[41] = system: IGROV1 ovarian
[42] = system: CCRF-CEM leukemia
[43] = system: KM12 colon
[44] = system: RPMI-8226 leukemia
[45] = system: NCI-H226 lung
[46] = system: SNB-75 CNS
[47] = system: SN12C renal
[48] = system: NCI/ADR-RES ovarian
[49] = system: A498 renal
[50] = system: TK-10 renal
[51] = system: HT29 colon
[52] = system: HS 578T breast
[53] = system: HCT-116 colon
[54] = system: SW-620 colon
[55] = system: HOP-62 NSCLC
[56] = system: DU-145 prostate
[57] = system: COLO 205 colon

NC(=O)c1ccccc1NC(=O)C(=O)C(c1cnc2ccc([N+](=O)[O-])cc2n1)[N+](=O)[O-] (stereo not given)
> 100 µM: TGI [1] | TGI [2] | TGI [3] | TGI [4] | TGI [5] | TGI [6] | TGI [7] | TGI [8] | TGI [9] | TGI [10] | TGI [11] | TGI [12] | TGI [13] | TGI [14] | TGI [15] | TGI [16] | TGI [17] | TGI [18] | TGI [19] | TGI [20] | TGI [21] | TGI [22] | TGI [23] | TGI [24] | TGI [25] | TGI [26] | TGI [27] | TGI [28] | TGI [29] | TGI [30] | TGI [31] | TGI [32] | TGI [33] | TGI [34] | TGI [35] | TGI [36] | TGI [37] | TGI [38] | TGI [39] | TGI [40] | TGI [41] | TGI [42] | TGI [43] | TGI [44] | TGI [45] | TGI [46] | TGI [47] | TGI [48] | TGI [49] | TGI [50] | TGI [51] | TGI [52] | TGI [53] | TGI [54] | TGI [55]

ClCCn1cnc2c(SCc3ccccc3)ncnc21
76.5 µM: TGI [23]
19.7 µM: TGI [17]
38.4 µM: TGI [53]
68.3 µM: TGI [8]
18.6 µM: TGI [12]
active: GI50 [9] 0.334 µM | GI50 [10] 0.356 µM | GI50 [36] 0.356 µM | GI50 [53] 0.381 µM
74.6 µM: TGI [49]
63.5 µM: TGI [25]
10.7 µM: TGI [41]
35.5 µM: TGI [44]
30.1 µM: TGI [36]
inactive: GI50 [1] 7.45 µM | GI50 [2] 0.623 µM | GI50 [3] 2.61 µM | GI50 [4] 0.79 µM | GI50 [5] 18.3 µM | GI50 [6] 3.12 µM | GI50 [7] 8.86 µM | GI50 [8] 4.68 µM | GI50 [11] 14.1 µM | GI50 [12] 0.534 µM | GI50 [13] 16.3 µM | GI50 [15] 29.2 µM | GI50 [16] 3.47 µM | GI50 [17] 1.05 µM | GI50 [18] 0.823 µM | GI50 [19] 6.65 µM | GI50 [20] 11.7 µM | GI50 [21] 25.7 µM | GI50 [56] 3.82 µM | GI50 [57] 1.79 µM | GI50 [23] 1.22 µM | GI50 [24] 1.65 µM | GI50 [25] 11.4 µM | GI50 [26] 30 µM | GI50 [27] 10.9 µM | GI50 [28] 8.3 µM | GI50 [29] 19.8 µM | GI50 [30] 0.685 µM | GI50 [31] 1.18 µM | GI50 [32] > 100 µM | GI50 [33] 1.49 µM | GI50 [34] 2.24 µM | GI50 [35] 8.77 µM | GI50 [37] 7.04 µM | GI50 [38] 0.64 µM | GI50 [39] 2.13 µM | GI50 [40] 4.99 µM | GI50 [41] 0.497 µM | GI50 [42] 0.889 µM | GI50 [43] 1.04 µM | GI50 [44] 0.73 µM | GI50 [45] 31 µM | GI50 [46] 0.777 µM | GI50 [47] 8.54 µM | GI50 [48] 4.94 µM | GI50 [49] 3.23 µM | GI50 [50] 0.924 µM | GI50 [51] 0.872 µM | GI50 [52] 15.4 µM | GI50 [54] 3.14 µM | GI50 [55] 1.44 µM
> 100 µM: TGI [1] | TGI [2] | TGI [3] | TGI [4] | TGI [5] | TGI [6] | TGI [7] | TGI [9] | TGI [10] | TGI [11] | TGI [13] | TGI [15] | TGI [16] | TGI [18] | TGI [19] | TGI [20] | TGI [21] | TGI [56] | TGI [57] | TGI [24] | TGI [26] | TGI [27] | TGI [28] | TGI [29] | TGI [30] | TGI [31] | TGI [32] | TGI [33] | TGI [34] | TGI [35] | TGI [37] | TGI [38] | TGI [40] | TGI [42] | TGI [43] | TGI [45] | TGI [46] | TGI [47] | TGI [48] | TGI [50] | TGI [51] | TGI [52] | TGI [54] | TGI [55]
39.4 µM: TGI [39]
